From ChEMBL document CHEMBL1201862, “PubChem BioAssay data set” (2004)
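Five compound concentrations were applied to cells in 96-well plates for 48 hours; endpoints were derived by simple linear interpolation of the resulting dose-response curve. GI50 marks 50% less growth.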 Activity calls are given as the source filed them. Cut-off read from the data, not from the text of the source: active = GI50 up to about 1.1 µM and inactive = higher.

Assays:
Test in all cases: NCI tumour cell line growth inhibition, 48 h
HT-29 = tested on: HT-29
RPMI-8226 = tested on: RPMI-8226
K562 = tested on: K562
OVCAR-8 = tested on: OVCAR-8
ACHN = tested on: ACHN
EKVX = tested on: EKVX
HCT-15 = tested on: HCT-15
SNB-19 = tested on: SNB-19
LOX IMVI = tested on: LOX IMVI
M14 = tested on: M14
OVCAR-5 = tested on: OVCAR-5
HCT-116 = tested on: HCT-116
SF-295 = tested on: SF-295
HOP-62 = tested on: HOP-62
MOLT-4 = tested on: MOLT-4
SK-OV-3 = tested on: SK-OV-3
A498 = tested on: A498
TK-10 = tested on: TK-10
UACC-257 = tested on: UACC-257
MCF7 = tested on: MCF7

SMILES	GI50 (HT-29)	GI50 (RPMI-8226)	GI50 (K562)	GI50 (OVCAR-8)	GI50 (ACHN)	GI50 (EKVX)	GI50 (HCT-15) [µM]	GI50 (SNB-19)	GI50 (LOX IMVI)	GI50 (M14)	GI50 (OVCAR-5)	GI50 (HCT-116)	GI50 (SF-295)	GI50 (HOP-62)	GI50 (MOLT-4)	GI50 (SK-OV-3)	GI50 (A498)	GI50 (TK-10)	GI50 (UACC-257)	GI50 (MCF7)
CCOC(=O)NC(=O)c1cn(CCNCCO)c(=O)[nH]c1=O	> 100 µM (inactive)	> 100 µM (inactive)	> 100 µM (inactive)	> 100 µM (inactive)	> 100 µM (inactive)	> 100 µM (inactive)	> 100	9.23 µM (inactive)	> 100 µM (inactive)	> 100 µM (inactive)	> 100 µM (inactive)	> 100 µM (inactive)	> 100 µM (inactive)	> 100 µM (inactive)	> 100 µM (inactive)	> 100 µM (inactive)				
NC(S)=Nc1cc(Cl)ccc1Cl	> 100 µM (inactive)	> 100 µM (inactive)	> 100 µM (inactive)	62.1 µM (inactive)	> 100 µM (inactive)	> 100 µM (inactive)	> 100	> 100 µM (inactive)	> 100 µM (inactive)	> 100 µM (inactive)	> 100 µM (inactive)	> 100 µM (inactive)	> 100 µM (inactive)	> 100 µM (inactive)	> 100 µM (inactive)	> 100 µM (inactive)	> 100 µM (inactive)	> 100 µM (inactive)	> 100 µM (inactive)	
c1nc2nc[nH]c(SSc3[nH]cnc4ncnc3-4)c-2n1	1.19 µM (inactive)		< 0.0472 µM (active)	0.455 µM (active)	3.21 µM (inactive)	88.3 µM (inactive)	0.925	47.4 µM (inactive)	< 0.0441 µM (active)	1.21 µM (inactive)	4.4 µM (inactive)	0.41 µM (active)	0.127 µM (active)	0.116 µM (active)			14.4 µM (inactive)	< 0.0343 µM (active)	2.63 µM (inactive)	0.136 µM (active)
CC(=O)Nc1ccc(C(=O)NN2C(=O)C(Cl)C2/C=C/c2ccccc2)cc1 (centres undefined)	> 100 µM (inactive)	> 100 µM (inactive)	> 100 µM (inactive)	> 100 µM (inactive)	> 100 µM (inactive)			> 100 µM (inactive)			> 100 µM (inactive)	> 100 µM (inactive)	> 100 µM (inactive)	> 100 µM (inactive)	> 100 µM (inactive)	> 100 µM (inactive)		> 100 µM (inactive)	> 100 µM (inactive)	
Nc1nc(=O)n(CC(O)CO)s1 (centres undefined)	> 100 µM (inactive)	> 100 µM (inactive)	> 100 µM (inactive)	> 100 µM (inactive)	> 100 µM (inactive)	> 100 µM (inactive)	> 100	> 100 µM (inactive)	> 100 µM (inactive)	> 100 µM (inactive)	> 100 µM (inactive)	> 100 µM (inactive)	> 100 µM (inactive)	> 100 µM (inactive)	> 100 µM (inactive)		> 100 µM (inactive)	> 100 µM (inactive)	> 100 µM (inactive)	
CC(C)(C)[Si](OC1CC(n2cnc3c(N)ncnc32)OC1CO)(c1ccccc1)c1ccccc1 (centres undefined)	16.1 µM (inactive)	14.1 µM (inactive)	17.1 µM (inactive)	18.9 µM (inactive)	13.6 µM (inactive)	18.4 µM (inactive)	> 10	20.2 µM (inactive)	17.7 µM (inactive)	34.6 µM (inactive)	18.6 µM (inactive)	17.2 µM (inactive)	15 µM (inactive)	22.5 µM (inactive)	20.7 µM (inactive)	14.9 µM (inactive)	17.9 µM (inactive)	24.2 µM (inactive)	66.5 µM (inactive)	
COc1ccc(N2C(=O)CSC2c2c[nH]c3ccccc23)cc1 (centres undefined)	51.1 µM (inactive)		26.2 µM (inactive)	60 µM (inactive)		> 100 µM (inactive)	70.3	> 100 µM (inactive)	78.9 µM (inactive)	> 100 µM (inactive)	> 100 µM (inactive)	59.2 µM (inactive)	44.9 µM (inactive)	> 100 µM (inactive)	33 µM (inactive)	> 100 µM (inactive)		59.8 µM (inactive)	> 100 µM (inactive)	70.1 µM (inactive)
O=C1CC(=O)N(c2ccccc2)N1/C(=C/c1ccccc1)c1ccccc1	20 µM (inactive)	10.2 µM (inactive)	1.54 µM (inactive)	19.8 µM (inactive)	25.8 µM (inactive)	37.6 µM (inactive)		19.6 µM (inactive)	1.6 µM (inactive)	19 µM (inactive)	29.2 µM (inactive)	16 µM (inactive)	17.3 µM (inactive)	18.5 µM (inactive)	1.58 µM (inactive)	25.6 µM (inactive)		21.3 µM (inactive)	24.8 µM (inactive)	21 µM (inactive)
CCOC(=O)[C@H]1Nc2c(cccc2[N+](=O)[O-])[C@H]2OCC[C@@H]12	> 100 µM (inactive)	> 100 µM (inactive)	> 100 µM (inactive)	> 100 µM (inactive)	> 100 µM (inactive)	> 100 µM (inactive)	> 100	> 100 µM (inactive)	> 100 µM (inactive)	> 100 µM (inactive)	> 100 µM (inactive)	> 100 µM (inactive)	> 100 µM (inactive)	> 100 µM (inactive)	> 100 µM (inactive)			> 100 µM (inactive)	11.5 µM (inactive)	
Cn1c(=O)[nH]c2c(c1=O)C(=O)CN2		> 100 µM (inactive)	> 100 µM (inactive)	> 100 µM (inactive)	> 10 µM (inactive)	> 100 µM (inactive)	> 100	> 100 µM (inactive)	> 100 µM (inactive)	> 100 µM (inactive)	> 100 µM (inactive)	> 100 µM (inactive)	> 100 µM (inactive)		> 100 µM (inactive)	> 100 µM (inactive)		> 100 µM (inactive)	> 100 µM (inactive)	
CCSc1nc(N)c2c(-c3ccccc3)c3c(nc2n1)CCC3		> 100 µM (inactive)	> 100 µM (inactive)	> 100 µM (inactive)	> 100 µM (inactive)	> 100 µM (inactive)	> 100	> 100 µM (inactive)	> 100 µM (inactive)	> 100 µM (inactive)	9.91 µM (inactive)	> 100 µM (inactive)	> 100 µM (inactive)	> 100 µM (inactive)	> 100 µM (inactive)	> 100 µM (inactive)		> 100 µM (inactive)	> 100 µM (inactive)	> 100 µM (inactive)
N=C(N)NS(=O)(=O)c1ccc(Nc2c3ccccc3nc3c(C(=O)N4CCN(CCO)CC4)ccc(Cl)c23)cc1	> 100 µM (inactive)	> 100 µM (inactive)	> 100 µM (inactive)	> 100 µM (inactive)	> 100 µM (inactive)		> 100	> 100 µM (inactive)		> 100 µM (inactive)	> 100 µM (inactive)	> 100 µM (inactive)	> 100 µM (inactive)	> 100 µM (inactive)	> 100 µM (inactive)	> 100 µM (inactive)	> 100 µM (inactive)	> 100 µM (inactive)	> 100 µM (inactive)	
CN(C)c1ccc(C2ON=C(c3ccccc3)N2C23CC4CC(CC(C4)C2)C3)cc1 (centres undefined)	> 10 µM (inactive)	> 10 µM (inactive)	9.12 µM (inactive)	> 10 µM (inactive)	> 10 µM (inactive)	> 10 µM (inactive)	> 10	> 10 µM (inactive)	> 10 µM (inactive)	> 10 µM (inactive)	> 10 µM (inactive)	> 10 µM (inactive)	> 10 µM (inactive)	> 10 µM (inactive)	5.87 µM (inactive)	> 10 µM (inactive)	> 10 µM (inactive)	> 10 µM (inactive)	> 10 µM (inactive)	
C[Si](C)(C)CC(N)=O	> 100 µM (inactive)	> 100 µM (inactive)	> 100 µM (inactive)	> 100 µM (inactive)	> 100 µM (inactive)	> 100 µM (inactive)	> 100	> 100 µM (inactive)	> 100 µM (inactive)	> 100 µM (inactive)	> 100 µM (inactive)	> 100 µM (inactive)	> 100 µM (inactive)	> 100 µM (inactive)	> 100 µM (inactive)	> 100 µM (inactive)		> 100 µM (inactive)	> 100 µM (inactive)	
COc1ccccc1NC(=O)/C(Cc1nc2ccc([N+](=O)[O-])cc2nc1O)=N\NC(=O)C[N+](C)(C)C	30.5 µM (inactive)			> 100 µM (inactive)	> 100 µM (inactive)	78 µM (inactive)	40.7	> 100 µM (inactive)	> 100 µM (inactive)	57.1 µM (inactive)	> 100 µM (inactive)	46.8 µM (inactive)	55.7 µM (inactive)	> 100 µM (inactive)	16.1 µM (inactive)	> 100 µM (inactive)		> 100 µM (inactive)	> 100 µM (inactive)	72.8 µM (inactive)
Cc1cccc(C)c1NC(=S)N/C=C(\C#N)C(N)=O	> 100 µM (inactive)	> 100 µM (inactive)	> 100 µM (inactive)	> 100 µM (inactive)	> 100 µM (inactive)	> 100 µM (inactive)	> 100	> 100 µM (inactive)	> 100 µM (inactive)	> 100 µM (inactive)	> 100 µM (inactive)	> 100 µM (inactive)	> 100 µM (inactive)	> 100 µM (inactive)	> 100 µM (inactive)	> 100 µM (inactive)		> 100 µM (inactive)	> 100 µM (inactive)	> 100 µM (inactive)
